#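 Cells were grown in 96-well plates and exposed to each compound for 48 hours at five concentrations; endpoints were interpolated linearly between bracketing concentrations, or set to the highest concentration if not reached. At the GI50, growth is halved. At the TGI there is no net growth.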
# Columns and labels:
# Experiment in all cases: NCI tumour cell line growth inhibition, 48 h
# [1] = system: 786-0 renal
# [2] = system: A498 renal
# [3] = system: A549 NSCLC
# [4] = system: ACHN renal
# [5] = system: BT-549 breast
# [6] = system: CAKI-1 renal
# [7] = system: CCRF-CEM leukemia
# [8] = system: COLO 205 colon
# [9] = system: DU-145 prostate
# [10] = system: EKVX NSCLC
# [11] = system: HCC-2998 colon
# [12] = system: HCT-15 colon
# [13] = system: HL-60(TB) leukemia
# [14] = system: HOP-62 NSCLC
# [15] = system: HOP-92 NSCLC
# [16] = system: HS 578T breast
# [17] = system: IGROV1 ovarian
# [18] = system: K-562 leukemia
# [19] = system: KM12 colon
# [20] = system: M14 melanoma
# [21] = system: MALME-3M melanoma
# [22] = system: MDA-MB-231 breast
# [23] = system: MDA-MB-435
# [24] = system: MOLT-4 leukemia
# [25] = system: NCI-H226 lung
# [26] = system: NCI-H23 lung
# [27] = system: NCI-H460 lung
# [28] = system: NCI/ADR-RES ovarian
# [29] = system: OVCAR-3 ovarian
# [30] = system: OVCAR-4 ovarian
# [31] = system: OVCAR-5 ovarian
# [32] = system: OVCAR-8 ovarian
# [33] = system: PC-3 prostate
# [34] = system: RPMI-8226 leukemia
# [35] = system: RXF 393 renal
# [36] = system: SF-268 CNS
# [37] = system: SF-295 CNS
# [38] = system: SF-539 CNS
# [39] = system: SK-MEL-2 melanoma
# [40] = system: SK-MEL-28 melanoma
# [41] = system: SK-MEL-5 melanoma
# [42] = system: SK-OV-3 ovarian
# [43] = system: SNB-19 CNS
# [44] = system: SNB-75 CNS
# [45] = system: TK-10 renal
# [46] = system: UACC-257 melanoma
# [47] = system: UACC-62 melanoma
# [48] = system: UO-31 renal
# [49] = system: HCT-116 colon
# [50] = system: HT29 colon
# [51] = system: LOX IMVI melanoma
# [52] = system: NCI-H522 lung
# [53] = system: SR leukemia
# [54] = system: SW-620 colon
# [55] = system: T-47D breast
# [56] = system: U251 CNS
structure (smiles),measurement,setting,value
COc1ccc(CN2C(=O)/C(=C\C(=O)c3ccc(OCCN4CCCC4)cc3)c3ccccc32)cc1,GI50,[1],1.68 µM
same,TGI,[1],3.19 µM
same,GI50,[2],18.1 µM
same,TGI,[2],38.7 µM
same,GI50,[3],13.2 µM
same,TGI,[3],36.2 µM
same,GI50,[4],1.66 µM
same,TGI,[4],3.02 µM
same,GI50,[5],10.6 µM
same,TGI,[5],23.3 µM
same,GI50,[6],11.8 µM
same,TGI,[6],27 µM
same,GI50,[7],3.34 µM
same,TGI,[7],32.2 µM
same,GI50,[8],2.28 µM
same,TGI,[8],5.52 µM
same,GI50,[9],2.32 µM
same,TGI,[9],5.65 µM
same,GI50,[10],11.3 µM
same,TGI,[10],34.2 µM
same,GI50,[11],2.6 µM
same,TGI,[11],6.12 µM
same,GI50,[12],1.65 µM
same,TGI,[12],3.24 µM
same,GI50,[13],2.61 µM
same,TGI,[13],6.7 µM
same,GI50,[14],20.8 µM
same,TGI,[14],43.9 µM
same,GI50,[15],2.09 µM
same,TGI,[15],4.9 µM
same,GI50,[16],14.3 µM
same,TGI,[16],54.6 µM
same,GI50,[17],1.99 µM
same,TGI,[17],3.78 µM
same,GI50,[18],2.05 µM
same,TGI,[18],6.03 µM
same,GI50,[19],11.1 µM
same,TGI,[19],34.7 µM
same,GI50,[20],2.25 µM
same,TGI,[20],5.34 µM
same,GI50,[21],1.75 µM
same,TGI,[21],3.35 µM
same,GI50,[22],2.17 µM
same,TGI,[22],4.44 µM
same,GI50,[23],1.81 µM
same,TGI,[23],3.74 µM
same,GI50,[24],2.91 µM
same,TGI,[24],7.11 µM
same,GI50,[25],20.8 µM
same,TGI,[25],52.9 µM
same,GI50,[26],10.9 µM
same,TGI,[26],36.5 µM
same,GI50,[27],2.03 µM
same,TGI,[27],3.8 µM
same,GI50,[28],5.71 µM
same,TGI,[28],47.7 µM
same,GI50,[29],1.8 µM
same,TGI,[29],3.48 µM
same,GI50,[30],2.18 µM
same,TGI,[30],5.44 µM
same,GI50,[31],1.78 µM
same,TGI,[31],4.76 µM
same,GI50,[32],2.66 µM
same,TGI,[32],5.78 µM
same,GI50,[33],2.35 µM
same,TGI,[33],4.83 µM
same,GI50,[34],2.54 µM
same,TGI,[34],6.29 µM
same,GI50,[35],1.95 µM
same,TGI,[35],3.66 µM
same,GI50,[36],13.2 µM
same,TGI,[36],42.7 µM
same,GI50,[37],14.8 µM
same,TGI,[37],36.8 µM
same,GI50,[38],1.82 µM
same,TGI,[38],3.75 µM
same,GI50,[39],17.1 µM
same,TGI,[39],37.4 µM
same,GI50,[40],1.79 µM
same,TGI,[40],3.42 µM
same,GI50,[41],16.2 µM
same,TGI,[41],38.8 µM
same,GI50,[42],18.6 µM
same,TGI,[42],34 µM
same,GI50,[43],3.83 µM
same,TGI,[43],15.1 µM
same,GI50,[44],14.2 µM
same,TGI,[44],30.9 µM
same,GI50,[45],1.74 µM
same,TGI,[45],3.33 µM
same,GI50,[46],20.2 µM
same,TGI,[46],40.3 µM
same,GI50,[47],1.84 µM
same,TGI,[47],3.38 µM
same,GI50,[48],1.66 µM
same,TGI,[48],3.11 µM
C#CC[C@@H]1C[C@]2(C)[C@H]3CC=C4[C@H]5[C@@H](C)[C@H](C)CC[C@]5(C(=O)NCCCCCCCCN)CC[C@@]4(C)[C@]3(C)CC[C@H]2C(C)(C)[C@H]1OC(C)=O,GI50,[2],1.78 µM
same,TGI,[2],3.21 µM
same,GI50,[18],2.02 µM
same,TGI,[18],5.69 µM
same,GI50,[32],2.15 µM
same,TGI,[32],5.01 µM
O=C1CNc2cc(N3CCOCC3)ccc2N1,TGI,[1],> 100 µM
same,TGI,[2],> 100 µM
same,TGI,[3],> 100 µM
same,TGI,[4],> 100 µM
same,TGI,[5],> 100 µM
same,TGI,[6],> 100 µM
same,TGI,[7],> 100 µM
same,TGI,[8],> 100 µM
same,TGI,[9],> 100 µM
same,TGI,[10],> 100 µM
same,TGI,[11],> 100 µM
same,TGI,[49],> 100 µM
same,TGI,[12],> 100 µM
same,TGI,[13],> 100 µM
same,TGI,[14],> 100 µM
same,TGI,[15],> 100 µM
same,TGI,[16],> 100 µM
same,TGI,[50],> 100 µM
same,TGI,[17],> 100 µM
same,TGI,[18],> 100 µM
same,TGI,[19],> 100 µM
same,TGI,[51],> 100 µM
same,TGI,[20],> 100 µM
same,TGI,[21],> 100 µM
same,TGI,[22],> 100 µM
same,TGI,[23],> 100 µM
same,TGI,[24],> 100 µM
same,TGI,[25],> 100 µM
same,TGI,[26],> 100 µM
same,TGI,[27],> 100 µM
same,TGI,[52],> 100 µM
same,TGI,[28],> 100 µM
same,TGI,[29],> 100 µM
same,TGI,[30],> 100 µM
same,TGI,[31],> 100 µM
same,TGI,[32],> 100 µM
same,TGI,[33],> 100 µM
same,TGI,[34],> 100 µM
same,TGI,[35],> 100 µM
same,TGI,[36],> 100 µM
same,TGI,[37],> 100 µM
same,TGI,[39],> 100 µM
same,TGI,[40],> 100 µM
same,TGI,[41],> 100 µM
same,TGI,[42],> 100 µM
same,TGI,[43],> 100 µM
same,TGI,[44],> 100 µM
same,TGI,[53],> 100 µM
same,TGI,[54],> 100 µM
same,TGI,[55],> 100 µM
same,TGI,[45],> 100 µM
same,TGI,[56],> 100 µM
same,TGI,[46],> 100 µM
same,TGI,[47],> 100 µM
same,TGI,[48],> 100 µM
